Source: patent US7659081B2, “Determination of AM-binding proteins and the association of adrenomedullin (AM) therewith” (The United States of America as represented by the …, priority 1999, dated 2010)

Tests used:
[1] = molecular target: T1, factor H (Homo sapiens, UniProt P08603); test: Multi-well plate competition of fluorescein-labeled AM binding to factor H; parameters: purchased Sigma; conditions: 50 nM fluorescein-labeled AM; factor H 5 ng/well; increasing concentrations of unlabeled competitor
T1 sequence (P08603 19-1231): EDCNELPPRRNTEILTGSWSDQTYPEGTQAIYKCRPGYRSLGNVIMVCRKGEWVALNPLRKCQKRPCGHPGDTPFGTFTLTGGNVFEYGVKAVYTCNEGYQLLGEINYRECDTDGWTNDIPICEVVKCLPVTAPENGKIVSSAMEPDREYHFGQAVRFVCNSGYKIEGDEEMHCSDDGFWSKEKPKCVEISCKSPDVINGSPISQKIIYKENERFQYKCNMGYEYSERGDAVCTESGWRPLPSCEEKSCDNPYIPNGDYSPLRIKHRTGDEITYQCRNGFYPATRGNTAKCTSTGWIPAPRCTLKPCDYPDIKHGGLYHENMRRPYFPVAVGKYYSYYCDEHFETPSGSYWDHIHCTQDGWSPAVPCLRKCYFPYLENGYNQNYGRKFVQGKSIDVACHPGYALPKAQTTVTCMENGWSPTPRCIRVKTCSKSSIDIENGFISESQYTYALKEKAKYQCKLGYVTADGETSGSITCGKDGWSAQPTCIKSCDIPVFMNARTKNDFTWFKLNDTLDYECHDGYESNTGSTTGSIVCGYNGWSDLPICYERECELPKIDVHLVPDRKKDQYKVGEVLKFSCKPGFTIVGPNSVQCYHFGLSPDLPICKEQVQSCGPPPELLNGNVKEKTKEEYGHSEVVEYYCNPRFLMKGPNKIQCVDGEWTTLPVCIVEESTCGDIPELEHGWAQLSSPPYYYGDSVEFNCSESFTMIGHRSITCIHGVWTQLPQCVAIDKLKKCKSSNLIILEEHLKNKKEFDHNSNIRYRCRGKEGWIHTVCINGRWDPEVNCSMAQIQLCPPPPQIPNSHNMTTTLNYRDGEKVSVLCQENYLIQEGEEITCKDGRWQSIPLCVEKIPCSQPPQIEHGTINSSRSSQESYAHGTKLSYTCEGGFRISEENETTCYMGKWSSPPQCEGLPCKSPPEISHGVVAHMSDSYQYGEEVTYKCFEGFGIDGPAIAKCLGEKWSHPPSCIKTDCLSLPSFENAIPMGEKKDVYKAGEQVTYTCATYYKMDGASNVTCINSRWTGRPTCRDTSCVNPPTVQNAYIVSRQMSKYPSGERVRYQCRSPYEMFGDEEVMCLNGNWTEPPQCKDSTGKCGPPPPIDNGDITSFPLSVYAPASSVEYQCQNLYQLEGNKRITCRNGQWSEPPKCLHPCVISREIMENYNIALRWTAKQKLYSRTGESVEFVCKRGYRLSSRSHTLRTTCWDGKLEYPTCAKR
Experimental: Lane 1: horseradish peroxidase (5 μg), a glycosylated protein used as positive control; Lane 2: soybean trypsin inhibitor (5 μg), a non-glycosylated protein used as negative control; Lane 3: AMBP-1 (2 μg). […] Lane 1: isoelectric focusing markers; Lane 2: AMBP-1 (4 μg). […] Lane 1: AMBP-1 (100 ng); Lane 2: AMBP-1 (200 ng); Lane 3: commercially available human factor H (50 ng); Lane 4: human plasma (0.2 μl). […] Results represent one of two independent experiments. Values represent mean and standard deviation of three determinations. “B/B0” indicates the ratio of signals generated in the presence/absence of unlabeled competitor.
Alternatively, the AM/fH interaction was analyzed using a multi-well assay. In accordance with this assay, a 96-well polyvinylchloride (PVC) plate was coated with factor H (5 ng/well, Sigma, St. Louis, Mo.). The plate was blocked with a solution containing TBS, 0.1% ATC, and 0.1% TWEEN® 20 nonionic detergent, and then incubated with fluorescein-labeled AM (50 nM) for 2 hr. Prior to the development of the assay, the wells were incubated for various time periods with PBS or 3M NaSCN pH 7.4. Following this, the plate was washed and incubated with anti-fluorescein polyclonal antibody (1:1000, Molecular Probes) and ^125I-Protein A (Amersham Pharmacia Biotech). Radioactivity was determined using a gamma counter. FIG. 6B.

[2] = system: pancreatic islets; test: Insulin secretion and cAMP in isolated pancreatic islets; format: cell-based, rat; conditions: islets with AM and/or factor H
Description: A representative experiment is shown. Values for each treatment represent the mean and standard deviation of three independent wells. […] All values were statistically different (p<0.05) from the negative controls (first bar).
Pancreatic islets were isolated from 12 rats as previously described (A. Martínez et al., 2000, Endocrinology 141:406-411). Briefly, the heart of each rat was perfused with Hank's balanced salt solution (Sigma) to remove blood from pancreatic vessels. A small canula was inserted into the common biliary duct while the coledoco was sealed. Twenty to twenty-five milliliters of 0.4 mg/ml collagenase XI (Sigma) in Hank's solution was pumped through the canula until the pancreas was fully inflated. The pancreas was removed and incubated at 37° C. for 20 min. Following this, 20 ml of ice-cold Hank's solution was added and the pancreas dissociated by vigorous vortexing. After several washes, the islets were collected and distributed into 24 well plates using a dissecting microscope, with approximately 70 islets per well.
Freshly isolated islets were incubated in RPMI-1640 (Life Technologies) containing 5.6 mM glucose for 45 min at 37° C. […] Insulin and cAMP were measured by radioimmunoassay with commercial kits (Amersham, Arlington Heights, Ill.), according to the manufacturer's directions. […]

[3] = intravenous injection; cited from earlier work
[4] = molecular target: T1, factor H; test: Cofactor activity of factor H: C3b cleavage with factor I; format: biochemical; conditions: 24 hr at 37° C.
Experimental: FIG. 10 illustrates the effect of AM on factor H activity. C3b (104 kDa α′ chain and 71 kDa β chain) was incubated 24 hr at 37° C. with factor H, factor I, and various peptides. Cleavage of the C3b α′ chain produced three bands with molecular weights 68 kD, 43 kD, and 42 kD.
To measure the cofactor activity of factor H, C3b (28 pmols) was incubated with factor I (0.16 pmols) and factor H (0.16 pmols) in the presence or absence of AM and related peptides for 24 hr at 37° C. in a final volume of 50 μl of PBS. Samples were fractionated by SDS-PAGE using 4-12% Tris-Bis gels (Novex) under reducing conditions, and stained with Coomassie Blue. C3b and factor I were purchased from Advanced Research Technologies (San Diego, Calif.). FIGS. 10A and 10B.

CC[C@H](C)[C@H](NC(=O)[C@H](CCC(N)=O)NC(=O)[C@H](Cc1c[nH]cn1)NC(=O)[C@H](C)NC(=O)[C@H](CC(C)C)NC(=O)[C@H](CCCCN)NC(=O)[C@H](CCC(N)=O)NC(=O)[C@@H](NC(=O)[C@@H](NC(=O)[C@@H]1CSSC[C@H](NC(=O)CNC(=O)[C@H](Cc2ccccc2)NC(=O)[C@H](CO)NC(=O)[C@H](CCCNC(=N)N)NC(=O)[C@H](CC(C)C)NC(=O)CNC(=O)[C@H](CCC(N)=O)NC(=O)[C@H](Cc2ccccc2)NC(=O)[C@H](CC(N)=O)NC(=O)[C@H](CC(N)=O)NC(=O)[C@H](CCSC)NC(=O)[C@H](CO)NC(=O)[C@H](CCC(N)=O)NC(=O)[C@H](CCCNC(=N)N)NC(=O)[C@@H](N)Cc2ccc(O)cc2)C(=O)N[C@@H](CCCNC(=N)N)C(=O)N[C@@H](Cc2ccccc2)C(=O)NCC(=O)N[C@@H]([C@@H](C)O)C(=O)N1)[C@@H](C)O)C(C)C)C(=O)N[C@@H](Cc1ccc(O)cc1)C(=O)N[C@@H](CCC(N)=O)C(=O)N[C@@H](Cc1ccccc1)C(=O)N[C@H](C(=O)N[C@@H](CC(=O)O)C(=O)N[C@@H](CCCCN)C(=O)N[C@@H](CC(=O)O)C(=O)N[C@@H](CCCCN)C(=O)N[C@@H](CC(=O)O)C(=O)N[C@@H](CC(N)=O)C(=O)N[C@H](C(=O)N[C@@H](C)C(=O)N1CCC[C@H]1C(=O)N[C@@H](CCCNC(=N)N)C(=O)N[C@@H](CO)C(=O)N[C@@H](CCCCN)C(=O)N[C@H](C(=O)N[C@@H](CO)C(=O)N1CCC[C@H]1C(=O)N[C@@H](CCC(N)=O)C(=O)NCC(=O)N[C@@H](Cc1ccc(O)cc1)C(N)=O)[C@@H](C)CC)C(C)C)[C@@H](C)O [AM, Adrenomedullin]
Effect on binding of fluorescein-labeled AM to factor H-coated plate [1]: competitively inhibited | cAMP in islets [2]: concomitant elevations on cAMP | Insulin secretion ([2]; 20.6 mM glucose, 45 min): dose-dependent decreases in insulin secretion | Insulin and glucose in the bloodstream [3]: reduces the levels of insulin in the bloodstream with a concomitant increase in circulating glucose | Effect on fH/fI-mediated cleavage of C3b [4]: enhances fH/fI-mediated cleavage of C3b
